Source: paper PMC4224607 (Chemical communications (Cambridge, England), 2014)

Assay: COPAS bead-based screening, background binding of the dye to library beads
Settings: TR-labeled lysine and TR-labeled hCAII

## O=S(=O)([O-])c1cc(S(=O)(=O)Cl)ccc1C1=c2cc3c4c(c2Oc2c1cc1c5c2CCCN5CCC1)CCC[N+]=4CCC3 [TR]
  composition of positive peptides: positively charged amino acids: reduced abundance of positively charged amino acids
